In this series the test system is CCRIS mutagenicity, Ames/micronucleus/aberration tests. Description: CCRIS mutagenicity studies.
[1] abbreviates: Test System: AMES SALMONELLA TYPHIMURIUM, Strain/Indicator: TA98, Metabolic Activation: NONE, Method: STANDARD PLATE.
Setting [2] is: Test System: AMES SALMONELLA TYPHIMURIUM, Strain/Indicator: TA98, Metabolic Activation: RAT, LIVER, S-9, AROCLOR 1254, Method: STANDARD PLATE.
The mark [3] stands for this setting: Test System: AMES SALMONELLA TYPHIMURIUM, Strain/Indicator: TA100, Metabolic Activation: NONE, Method: STANDARD PLATE.
[4] abbreviates: Test System: AMES SALMONELLA TYPHIMURIUM, Strain/Indicator: TA100, Metabolic Activation: RAT, LIVER, S-9, AROCLOR 1254, Method: STANDARD PLATE.
The mark [5] stands for this setting: Test System: AMES SALMONELLA TYPHIMURIUM, Strain/Indicator: TA1535, Metabolic Activation: RAT, LIVER, S-9, AROCLOR 1254, Method: STANDARD PLATE.
The mark [6] stands for this setting: Test System: AMES SALMONELLA TYPHIMURIUM, Strain/Indicator: TA1537, Metabolic Activation: NONE, Method: STANDARD PLATE.
Setting [7] is: Test System: AMES SALMONELLA TYPHIMURIUM, Strain/Indicator: TA1537, Metabolic Activation: RAT, LIVER, S-9, AROCLOR 1254, Method: STANDARD PLATE.

Active and inactive are the calls of the source. How the calls were made is not given here.

`O=C/C=C/C=C\c1ccc([N+](=O)[O-])cc1`: the mutagenic call (Test System: AMES SALMONELLA TYPHIMURIUM, Strain/Indicator: 98(NR), Metabolic Activation: HAMSTER, LIVER, S-9, AROCLOR 1254, Method: STANDARD PLATE) is “active; positive”; the mutagenic call (Test System: AMES SALMONELLA TYPHIMURIUM, Strain/Indicator: 98(NR), Metabolic Activation: NONE, Method: STANDARD PLATE) is “active; positive”; the mutagenic call (Test System: AMES SALMONELLA TYPHIMURIUM, Strain/Indicator: 98(NR), Metabolic Activation: RAT, LIVER, S-9, AROCLOR 1254, Method: STANDARD PLATE) was “active; positive”; the mutagenic call (Test System: AMES SALMONELLA TYPHIMURIUM, Strain/Indicator: 100(NR), Metabolic Activation: HAMSTER, LIVER, S-9, AROCLOR 1254, Method: STANDARD PLATE) was “active; positive”; the mutagenic call (Test System: AMES SALMONELLA TYPHIMURIUM, Strain/Indicator: 100(NR), Metabolic Activation: NONE, Method: STANDARD PLATE) is “active; positive”; the mutagenic call (Test System: AMES SALMONELLA TYPHIMURIUM, Strain/Indicator: 100(NR), Metabolic Activation: RAT, LIVER, S-9, AROCLOR 1254, Method: STANDARD PLATE) was “active; positive”. Moreover, the mutagenic call runs as follows: (Test System: AMES SALMONELLA TYPHIMURIUM, Strain/Indicator: TA98, Metabolic Activation: HAMSTER, LIVER, S-9, AROCLOR 1254, Method: STANDARD PLATE) “active; positive”; under setting [1], “active; positive”; under setting [2], “active; positive”; (Test System: AMES SALMONELLA TYPHIMURIUM, Strain/Indicator: TA100, Metabolic Activation: HAMSTER, LIVER, S-9, AROCLOR 1254, Method: STANDARD PLATE) “active; positive”; under setting [3], “active; positive”; under setting [4], “active; positive”. The mutagenic call reads like this: (Test System: AMES SALMONELLA TYPHIMURIUM, Strain/Indicator: TA1535, Metabolic Activation: HAMSTER, LIVER, S-9, AROCLOR 1254, Method: STANDARD PLATE) “active; positive”; (Test System: AMES SALMONELLA TYPHIMURIUM, Strain/Indicator: TA1535, Metabolic Activation: NONE, Method: STANDARD PLATE) “active; positive”; under setting [5], “active; positive”; under setting [6], “active; positive”; under setting [7], “active; positive”; (Test System: Mouse lymphoma, Strain/Indicator: L5178Y (tk+/tk-), Metabolic Activation: None, Method: Suspension/plate) “active; equivocal (previous evaluation positive)”. Moreover, the mutagenic call (Test System: Mouse lymphoma, Strain/Indicator: L5178Y (tk+/tk-), Metabolic Activation: Rat, Liver, S-9, Aroclor 1254, Method: Suspension/plate) is “inactive; negative”.

With `NNc1nnc(NN)c2ccccc12`, the mutagenic call runs as follows: (Test System: AMES SALMONELLA TYPHIMURIUM, Strain/Indicator: TA97, Metabolic Activation: NONE, Method: STANDARD PLATE) “active; positive”; under setting [2], “active; positive”; under setting [4], “inactive; negative”; (Test System: AMES SALMONELLA TYPHIMURIUM, Strain/Indicator: TA102, Metabolic Activation: NONE, Method: STANDARD PLATE) “active; positive”; (Test System: AMES SALMONELLA TYPHIMURIUM, Strain/Indicator: TA104, Metabolic Activation: NONE, Method: STANDARD PLATE) “inactive; negative”; under setting [5], “inactive; negative”. Further, the mutagenic call by setting is: under setting [6], “active; positive”; under setting [7], “active; positive”; (Test System: AMES SALMONELLA TYPHIMURIUM, Strain/Indicator: TA1538, Metabolic Activation: NONE, Method: STANDARD PLATE) “active; positive”.

As for `CS(=O)(=O)OCCCCOS(C)(=O)=O`, the mutagenic call is, setting by setting: under setting [1], “inactive; negative”; (Test System: AMES SALMONELLA TYPHIMURIUM, Strain/Indicator: TA98, Metabolic Activation: S-9, Method: STANDARD PLATE) “inactive; negative”; under setting [3], “inactive; negative”; (Test System: AMES SALMONELLA TYPHIMURIUM, Strain/Indicator: TA100, Metabolic Activation: S-9, Method: STANDARD PLATE) “active; positive”; (Test System: AMES SALMONELLA TYPHIMURIUM, Strain/Indicator: TA1537, Metabolic Activation: S-9, Method: STANDARD PLATE) “inactive; negative”; (Test System: E. COLI, Strain/Indicator: WP2 (HCR), Metabolic Activation: NONE, Method: STANDARD PLATE) “inactive; negative”. Besides, the mutagenic call reads like this: (Test System: E. COLI, Strain/Indicator: WP2 (HCR), Metabolic Activation: S-9, Method: STANDARD PLATE) “active; positive”; (Test System: MOUSE LYMPHOMA, Strain/Indicator: L5178Y (TK+/TK-), Metabolic Activation: NONE, Method: SUSPENSION/PLATE) “active; positive”; (Test System: MOUSE LYMPHOMA, Strain/Indicator: L5178Y (TK+/TK-), Metabolic Activation: RAT, LIVER, S-9, AROCLOR 1254, Method: SUSPENSION/PLATE) “active; positive”.

On to `CC(Br)C(=O)NCc1ccccc1` (stereo not drawn), for which the mutagenic call by setting is: (Test System: AMES SALMONELLA TYPHIMURIUM, Strain/Indicator: TA100, Metabolic Activation: MOUSE, LIVER, S-9, AROCLOR 1254, Method: STANDARD PLATE) “active; positive”; under setting [3], “active; positive”.

On to `O=NN1CCSC1`, for which the mutagenic call reads like this: (Test System: AMES SALMONELLA TYPHIMURIUM, Strain/Indicator: TA98, Metabolic Activation: NONE, Method: PREINCUBATION) “inactive; negative”; under setting [1], “inactive; negative”; (Test System: AMES SALMONELLA TYPHIMURIUM, Strain/Indicator: TA98, Metabolic Activation: RAT, LIVER, S-9, AROCLOR 1254, Method: PREINCUBATION) “inactive; negative”; under setting [2], “active; positive”; under setting [3], “active; positive”; (Test System: AMES SALMONELLA TYPHIMURIUM, Strain/Indicator: TA100, Metabolic Activation: RAT, LIVER, S-9, AROCLOR 1254, Method: PREINCUBATION) “active; positive”. Further, the mutagenic call is “active; positive” under setting [4] and “active; positive” (Test System: UDS RAT PRIMARY HEPATOCYTES, Strain/Indicator: THY INCORP, Metabolic Activation: NONE).

`Cc1ccc2c(C)c3ccc4c(c3nc2c1)C=C[C@H](O)[C@H]4O`: the mutagenic call under setting [4] is “active; positive”.

Values taken from PubChem BioAssay AID1259407 (Chemical Carcinogenesis Research Information System (CCRIS), 2018).
